Key:
[1] = test system: breast tumor cells (MDA-MB-231); assay: In vitro cytotoxicity, cell viability by MTT assay; type: cell-based; conditions: with sonication for 20 min, then 24 hr culture; 75 μL NB suspension or CPT 1.3 μg/mL
Protocol: FIG. 6 is a diagram showing the cell viability of breast tumor cells (MDA-MB-231) cultured under different conditions. In FIG. 6(a), the control group was performed on the cells cultured without adding the model drug (CPT) and performing sonication. In FIG. 6(b), cells were sonicated for 20 min. In FIG. 6(c), cells were cultured with the medium containing 75 μL of CPT-loaded CHC/SPIO NB suspension without sonication for 20 min. In FIG. 6(d), cells were cultured with the medium containing 75 μL of CPT-loaded CHC/SPIO NB suspension with sonication for 20 min. In FIG. 6(e), cells were cultured with CPT-containing medium (CPT/medium concentration: 1.3 μg/mL) under sonication for 20 min. […] After above treatments, the cell mediums were removed and the cells were washed with PBS. Then, fresh medium was added and further cultured for 24 hr. The cell viability was measured by MTT assay.
Thus, CPT molecules could efficiently access tumor cells. Moreover, the amphiphilic CHC molecules from ruptured bubbles also might be helpful to increase transmembrane permeation.

[2] = Release test with and without sonication, confocal microscope observation of leakage and dispersion; type: physicochemical; conditions: sonication 1 MHz, 1 W/cm^2, duty ratio 20%, 20 min
Protocol: FIG. 5 is a diagram showing the confocal microscope observation for CPT-loaded CHC/SPIO NBs (FIG. 5(a)) and FITC-loaded CHC/SPIO NBs (FIG. 5(b), indicated by arrows). […] FIGS. 5(d) and (e) show the confocal microscope observation for CPT-loaded CHC/SPIO NBs after the release test without sonication and with sonication (ultrasonic frequency: 1 MHz, power density: 1 W/cm^2, duty ratio: 20%) for 20 min, respectively. […] Scale bar 5 μm.
The confocal photographs of the as-received CHC/SPIO MBs loaded with hydrophobic agent (CPT, blue fluorescence) and hydrophilic agent (FITC, green fluorescence) are shown in FIGS. 5(a) and 5(b), respectively. […] This implies that CHC/SPIO MBs can carry both hydrophobic and hydrophilic agents, and the encapsulation ability of CHC/SPIO MBs for CPT (a hydrophobic agent) was better than that for FITC (a hydrophilic agent). […] This was not observed for the CPT-containing medium (without CHC) under the same sonication for 20 min.

CC[C@@]1(O)C(=O)OCc2c1cc1n(c2=O)Cc2cc3ccccc3nc2-1 [CPT, camptothecin]
cytotoxicity / cell viability [1]: higher viability than those treated with CPT-loaded CHC/SPIO NBs under sonication
dispersion of CPT in hydrophilic medium [2]: not well-dispersed under sonication

Source: patent US20140212502A1, “NANO- AND MICRO-BUBBLES WITH ULTRASOUND-TRIGGERED RELEASE AND IMAGING FUNCTIONALITIES” (NATIONAL YANG-MING UNIVERSITY, priority 2013, published 2014)
